Experimental data from US6514998B1 (priority 1994, dated 2003).

What was measured:
Pyricularia oryzae = type: in vivo; conditions: application rate 250 ppm; rice seedlings (Tai Nong 67) sprayed 24 h before infection; 6 days; untreated plants 70% attack
Fusarium culmorum = assay: Activity against Fusarium culmorum on wheat seedlings; type: in vivo; conditions: application rate 500 ppm; wheat seedlings (Kanzler) sprayed one day before infection; 6 days; untreated plants 60% attack
Experimental: On the following day, the plants were infected with a spore suspension of Fusarium culmorum. The plants treated in this way were incubated for 6 days at 22-24° C. and a relative atmospheric humidity of >90%. Assessment was carried out visually.

Botrytis cinerea = conditions: application rate 500 ppm; paprika seedlings (Neusiedler Ideal Elite) sprayed before infection; 5 days; untreated plants 80% attack

SMILES: COC(=O)N(OC)c1ccccc1COc1ncn(-c2ccccc2)n1 [Compound 2]
- attack (visual assessment) (Pyricularia oryzae): 3%
- attack (visual assessment) (Fusarium culmorum): 5%
- attack (visual assessment) (Botrytis cinerea): 5%
